Results from ChEMBL document CHEMBL1130872, “Neuronorm is a potent and water soluble neurokinin A receptor antagonist” (Bioorg Med Chem Lett, 1998).

Legend:
[1] = biological target: T1, Substance-K receptor (Cavia porcellus) (UniProt Q64077); assay: Antagonist Activity of compound (100 nM) at Tachykinin receptor 2 at guinea pig trachea in the presence of P-Ala8-NKA[4-IO] as agonist; assay type: functional
T1 sequence (whole entry): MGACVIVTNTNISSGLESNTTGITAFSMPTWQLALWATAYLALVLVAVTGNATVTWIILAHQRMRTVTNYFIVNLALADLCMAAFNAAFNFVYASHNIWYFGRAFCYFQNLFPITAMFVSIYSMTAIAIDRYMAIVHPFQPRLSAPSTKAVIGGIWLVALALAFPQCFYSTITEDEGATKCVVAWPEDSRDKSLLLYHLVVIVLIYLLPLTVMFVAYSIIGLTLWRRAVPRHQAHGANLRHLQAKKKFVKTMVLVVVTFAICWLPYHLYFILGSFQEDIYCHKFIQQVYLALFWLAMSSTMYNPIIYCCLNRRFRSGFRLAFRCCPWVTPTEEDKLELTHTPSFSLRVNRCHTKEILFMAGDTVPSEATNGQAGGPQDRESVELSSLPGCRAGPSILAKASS

Substance-K receptor = biological target: T2, Substance-K receptor (Cavia porcellus, UniProt Q64077); assay: Compound was evaluated for antagonistic activity towards Tachykinin receptor 2 at guinea pig trachea; assay type: functional, tissue-based; conditions: read-out: pA2 (converted)
T2 sequence (Q64077 whole entry): T1 sequence (whole entry)

[2] = biological target: T1, Substance-K receptor (Cavia porcellus); assay: Antagonist Activity of compound (30 nM) at Tachykinin receptor 2 at guinea pig trachea in the presence of P-Ala8-NKA[4-IO] as agonist; assay type: functional
[3] = biological target: T1, Substance-K receptor (Cavia porcellus); assay: Antagonist Activity of compound (10 nM) at Tachykinin receptor 2 at guinea pig trachea in the presence of P-Ala8-NKA[4-IO] as agonist; assay type: functional

`CSCC[C@@H]1NC(=O)C(CC(C)C)NC(=O)C2CNC(=O)C[C@H](NC1=O)C(=O)N[C@@H](Cc1c[nH]c3ccccc13)C(=O)NC(Cc1ccccc1)C(=O)N2` (single isomer, unassigned) gave an Emax [1] of 98%, a Kb (Substance-K receptor) of 0.0234 µM and an Emax [2] of 90%. It also gave an Emax [3] of 93%.
